# Measurements published in patent US4578400A, “Therapeutic composition and method for treatment of cardiovascular diseases” (priority 1982, dated 1986).
# Experiments:
# [1] = test system: ventricular fibrillation after coronary artery ligation; test: Antiarrhythmic effects on myocardial infarction (coronary ligation); assay type: in vivo, dogs; details: for Threshold level for inducing ventricular fibrillation, 30 min after ligation: before ligation = 100, control 41
# From the text: Antiarrhythmic effects on myocardial infarction
# The method described by Shinohara (Jap. Circul. J., 32, 1269-1281, 1968) was used. Dogs were divided into groups of 5 animals, anesthetized with intravenous pentobarbital and were thoracotomized under artificial respiration, and a platinum bipolar electrode was inserted on the wall of the right atrium. Then the sinus node was crushed and the animals were subjected to pacing (2.5 Hz, 3 msec, 3.5-8 V) with an electronic stimulator. The left anterior descending coronary artery was doubly ligated at a site 2 cm away from its origin (A. S. Harris, Circulation, 1, 1318, 1950). Then 5--HDA--Na and lidocaine were injected into the femoral vein of the respective dogs. Using an electrode inserted in an ischemic zone in the left ventricle, the animals were given 15 to 20 successive electrical shocks before the ligation and 30 minutes after the ligation and administration. The threshold level necessary for inducing ventricular fibrillation was determined for each group of animals and shown in Table 4, with the values before the ligation taken as 100.
# [2] = biological target: T1, 3-hydroxy-3-methylglutaryl coenzyme A (HMG-Co A) reductase (Rattus norvegicus, UniProt P51639); test: Inhibition of HMG-CoA reductase activity; assay type: biochemical, rat (liver microsome); details: read-out: IC30 (amount necessary for inhibiting the enzymatic activity by 30%)
# T1 sequence (P51639 1-887): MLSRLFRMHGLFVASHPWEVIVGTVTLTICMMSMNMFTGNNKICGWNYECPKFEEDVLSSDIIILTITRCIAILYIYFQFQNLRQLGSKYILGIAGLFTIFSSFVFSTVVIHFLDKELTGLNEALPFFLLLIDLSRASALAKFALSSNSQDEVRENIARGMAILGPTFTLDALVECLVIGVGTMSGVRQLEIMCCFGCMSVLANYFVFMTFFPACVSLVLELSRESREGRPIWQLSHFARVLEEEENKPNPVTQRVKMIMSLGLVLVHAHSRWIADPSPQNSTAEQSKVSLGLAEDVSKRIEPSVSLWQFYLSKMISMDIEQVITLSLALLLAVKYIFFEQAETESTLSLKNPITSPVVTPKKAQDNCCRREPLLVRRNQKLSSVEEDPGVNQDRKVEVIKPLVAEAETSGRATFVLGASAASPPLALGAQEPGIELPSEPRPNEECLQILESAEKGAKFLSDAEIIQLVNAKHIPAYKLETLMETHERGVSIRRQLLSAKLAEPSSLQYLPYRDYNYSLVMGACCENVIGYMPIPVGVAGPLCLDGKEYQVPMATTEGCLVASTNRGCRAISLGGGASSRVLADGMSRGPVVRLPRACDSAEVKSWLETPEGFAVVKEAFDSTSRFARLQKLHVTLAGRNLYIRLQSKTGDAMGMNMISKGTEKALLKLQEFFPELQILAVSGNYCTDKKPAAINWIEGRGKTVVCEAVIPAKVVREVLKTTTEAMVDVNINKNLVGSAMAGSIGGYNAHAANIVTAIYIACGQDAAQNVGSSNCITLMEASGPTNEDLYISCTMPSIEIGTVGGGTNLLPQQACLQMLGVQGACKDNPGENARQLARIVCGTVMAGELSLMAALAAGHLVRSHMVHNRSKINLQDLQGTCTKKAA
# From the text: Inhibition of the activity of 3-hydroxy-3-methylglutaryl coenzyme A (HMG-Co A) reductase
# [3] = Lowering serum lipid levels in Triton-induced hyperlipidemic rats; assay type: in vivo, male Wistar rats
# Protocol: After 10 hours, blood samples were drawn to determine the serum levels of total cholesterol and triglyceride.
# [4] = Acute toxicity; details: one week observation
# From the text: Male ddy mice weighing about 25 g were divided into groups of 10 animals and orally administered once with 3 g/kg of 5--HDA, 5--HDA--Na, 5--HDAE, 5--HDA--DHP or δ-DL, or intraperitoneally injected once with 1 g/kg of said compounds.
# [5] = test system: myocardial mitochondria; test: Inhibition of the decrease in respiratory capacity of myocardial mitochondria; assay type: biochemical, male Wistar rats; details: for ATP production rate: normal 515, defective 204, *P < 0.05
# Protocol: Inhibition of the decrease in respiratory capacity of myocardial mitochondria
# According to the method of Hagiwara (Biochem. Biophys. Acta, 46, 134-142, 1961), mitochondria fractions were prepared from the myocardium isolated from male Wistar rats weighing about 300 g. The respiratory capacity of the mitochondria was measured by polarography with an oxygen electrode (TA-100, Yanagimoto), with sodium glutamate and ADP being successively added to give final concentrations of 50 mM and 4 mM, respectively. Defective mitochondria were prepared by leaviang the mitochondria fractions at 0° C. for 24 hours, and 5--HDA--Na was added to determine its ability to inhibit the decrease in the respiratory capacity of the myocardial mitochondria, which is proportional to the rate of ATP production.
# [6] = Lowering serum cholesterol levels in hyperlipidemic rabbits; assay type: in vivo, male Japanese white rabbits; details: 100 mg/kg oral daily for 7 days
# From the text: Male Japanese white rabbits weighing about 2.5 kg were fed on a solid diet containing 1% cholesterol (RC-4, Nippon Crea Co., Ltd.) for 10 weeks until hypercholesterolemia fully developed. The rabbits were then divided into groups of 5 animals, and 5--HDA--Na or δ-DL was orally admininistered daily for 7 days, either as a solution or as an emulsion in 5% aqueous arabic gum. Three hours after the last administration, blood was drawn to determine the serum level of cholesterol.
# [7] = 100 mg/kg oral, four times, against control, 10 hours after Triton WR-1339, *P < 0.05
smiles,measurement,setting,value
CCCCCC(O)CCCC(=O)[O-].[Na+] (centres unmarked),"Threshold level for inducing ventricular fibrillation, 30 min after ligation",[1]; 0.3 mg/kg i.v.,67
same,"Threshold level for inducing ventricular fibrillation, 30 min after ligation","[1]; 1.0 mg/kg i.v., *P < 0.05",70
same,"Threshold level for inducing ventricular fibrillation, 30 min after ligation","[1]; 3.0 mg/kg i.v., *P < 0.05",79
same,threshold level for inducing ventricular fibrillation (in words),"[1]; after coronary ligation, i.v.",increased in a dose-dependent manner
same,IC30,[2],100 µM
same,"inhibition rate, total cholesterol (serum)",[3]; [7],20%
same,"inhibition rate, triglyceride (serum)",[3]; [7],15%
same,antilipidemic effects compared with Clofibrate (in words),"[3]; 100 mg/kg, oral","equipotent to or stronger than the effect of the known anti-lipidemic agent, Clofibrate"
same,acute toxicity: abnormality,[4]; 1 g/kg intraperitoneal once,no abnormality occurred
same,acute toxicity: death,[4]; 1 g/kg intraperitoneal once,no animal died
same,acute toxicity: abnormality,[4]; 3 g/kg oral once,no abnormality occurred
same,acute toxicity: death,[4]; 3 g/kg oral once,no animal died
same,decrease in ATP production in defective mitochondria (in words),[5]; defective mitochondria,significantly inhibited
same,ATP production rate,[5]; defective mitochondria + 10^-4 M,265 mM/mg-protein/min
same,ATP production rate,[5]; defective mitochondria + 10^-5 M,220 mM/mg-protein/min
same,serum level of total cholesterol (in words),[6],lowered the serum level of total cholesterol
same,Total serum cholesterol,"[6]; 3 h after last administration, control 1,394, *P < 0.05","1,165 mg/dl"
